Assay [1] concerns the target uPAR.uPA protein-protein interaction (Homo sapiens, UniProt Q03405). Nature of the assay: Fluorescence polarization, urokinase receptor with peptide AE147. The class given is binding. Particulars: 24 h at 4° C. The text has this: (§1) The selectivity of the compounds was explored with two unrelated protein-protein interactions between (i) the urokinase receptor (uPAR) and its ligand urokinase (uPA); and (ii) the a subunit of the voltage-gated calcium channel Cav2.2 with its β subunit Cavβ3. […] Both proteins have cysteine residues capable of forming covalent adducts.
(§2) FIG. 4D illustrates BLI measurements of the binding of TEAD4 to captured Yap when biotin-labeled GST-Yap1 was captured onto streptavidin-conjugated biolayer interferometry sensors which were dipped into varying concentrations of TEAD4. (mean±s.d.; n=3). […] FIG. 4F illustrates measured fluorescence polarization when increasing concentration of HIS-TEAD2 was mixed with 16 nM FAM-Yap60-99 peptide (mean±s.d.; n=3). FIG. 4G illustrates measured fluorescence polarization when HIS-TEAD2 was incubated with increasing concentration of compounds for 24 h at 4° C. followed by addition of FAM-Yap60-99 (mean±s.d.; n=3). FIG. 4H illustrates measured fluorescence polarization when urokinase receptor (uPAR) was incubated with varying concentrations of compounds for 24 h at 4° C. followed by addition of a urokinase-derived fluorescently-labeled peptide AE147 (mean±s.d.; n=3). […]

Assay [2] relates to TEAD4 transcriptional activity. The experiment in a line: TEAD4 luciferase reporter assay (CTGF promoter) in HEK-293 cells. It counts as cell-based. How it is done:
HEK-293 cells plated at 2.4×10^4 cells/well in a 96-well microplate were transfected after 24 hours with the a pGL3.1 reporter containing the CTGF promoter and a plasmid encoding TK-Renilla luciferase in combination with control vectors or vectors that express Yap1 and TEAD4. […] Luciferase activity was measured according to the Dual-Glo luciferase assay (Promega) instructions using a Biotek Synergy Neo2 plate reader. Relative luciferase activity represents the ratio of firefly/renilla luminescence values.
(In a reporter assay the amount or activity of a reporter protein is the signal.)

The target of assay [3] is Cav2.2 α·β protein-protein interaction (Homo sapiens, UniProt P54284). Nature of the assay: Fluorescence polarization, Cavβ3 with labeled α-subunit peptide. Conditions: 24 h at 4° C. The class given is binding.
Sequence of Cav2.2 α·β protein-protein interaction (P54284 whole entry): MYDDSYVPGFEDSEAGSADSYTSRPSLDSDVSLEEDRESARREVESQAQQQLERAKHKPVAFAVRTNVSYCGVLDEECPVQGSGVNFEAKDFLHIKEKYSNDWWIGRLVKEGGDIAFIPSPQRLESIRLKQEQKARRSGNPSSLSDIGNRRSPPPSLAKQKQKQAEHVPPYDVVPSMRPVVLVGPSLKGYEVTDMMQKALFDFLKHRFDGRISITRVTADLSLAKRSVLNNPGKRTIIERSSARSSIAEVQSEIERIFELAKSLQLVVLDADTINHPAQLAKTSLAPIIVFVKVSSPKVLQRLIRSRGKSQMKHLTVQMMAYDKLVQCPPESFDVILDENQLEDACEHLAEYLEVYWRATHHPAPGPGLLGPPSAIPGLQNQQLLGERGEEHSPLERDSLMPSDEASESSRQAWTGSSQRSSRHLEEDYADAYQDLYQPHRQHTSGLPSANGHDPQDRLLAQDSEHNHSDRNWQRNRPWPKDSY
Description: as §1, §2

The next assay concerns the target TEAD4.Yap1 interaction (Homo sapiens, UniProt Q15561). Nature of the assay: Co-immunoprecipitation of Myc-tagged TEAD4 with Flag-tagged Yap1 in HEK293 cells. Particulars: 5 μM, 48 hours. The class given is cell-based. Also on record: expressed in transfected cells; host or cells: HEK293. How it is done:
HEK293 cells transfected with Flag-YAP1 alone or in combination with myc-TEAD4 were incubated with DMSO or the indicated amount of compounds for 48 hours. Cells were harvested in lysis buffer (50 mM Tris-HCl, pH 7.3, 150 mM NaCl, 0.5 mM EDTA, 1% Triton X-100, PhosSTOP phosphatase inhibitor cocktail, and complete EDTA-free protease inhibitors cocktail). Extracts were immunoprecipitated with magnetic beads coupled to the M2 (anti-Flag) antibody (Sigma-Aldrich) for 4 h at 4° C. Dynabeads were then washed and bound proteins were denatured and eluted according to the manufacturer's instructions. Relative levels of myc-TEAD4 from each complex was then measured by immunoblot analysis with the anti-c-Myc antibody (1:5,000, Sigma-Aldrich).

“Also recorded” adds a separate entry of the source.

Sequence of uPAR.uPA protein-protein interaction (Q03405 23-305 limits assumed): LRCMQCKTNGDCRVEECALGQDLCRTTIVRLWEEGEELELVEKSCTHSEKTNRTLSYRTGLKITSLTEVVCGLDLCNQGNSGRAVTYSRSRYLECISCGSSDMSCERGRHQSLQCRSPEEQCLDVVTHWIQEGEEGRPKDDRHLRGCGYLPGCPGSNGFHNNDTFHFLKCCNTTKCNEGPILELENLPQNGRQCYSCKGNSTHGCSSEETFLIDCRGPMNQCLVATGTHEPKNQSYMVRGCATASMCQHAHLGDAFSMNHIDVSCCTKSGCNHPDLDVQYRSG
Sequence of TEAD4.Yap1 interaction (Q15561 whole entry): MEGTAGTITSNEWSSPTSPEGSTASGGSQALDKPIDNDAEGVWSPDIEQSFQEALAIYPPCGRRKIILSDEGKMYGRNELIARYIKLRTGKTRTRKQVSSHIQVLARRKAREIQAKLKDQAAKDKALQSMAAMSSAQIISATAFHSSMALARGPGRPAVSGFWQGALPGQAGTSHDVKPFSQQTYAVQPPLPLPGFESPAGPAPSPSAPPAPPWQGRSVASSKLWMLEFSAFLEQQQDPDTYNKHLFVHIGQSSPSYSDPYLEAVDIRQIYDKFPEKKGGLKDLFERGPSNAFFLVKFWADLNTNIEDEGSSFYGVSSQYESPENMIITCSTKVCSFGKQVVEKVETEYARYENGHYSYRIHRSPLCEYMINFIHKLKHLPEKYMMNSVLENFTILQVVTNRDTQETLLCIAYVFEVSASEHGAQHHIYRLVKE

On to `O=C(CCl)c1ccccc1Nc1cccc(C(F)(F)F)c1` [Compound 2, 2-chloro-1-(2-((3-(trifluoromethyl)phenyl)amino)phenyl)ethanone], for which, in assay [1], the “inhibition of uPAR.uPA interaction” value is “no inhibition”. Besides, in assay [2] (5 μM, 48 h), the “reduction in reporter activity” value is recorded as “over 70%”. The “reporter activity” value in assay [2] (10 μM, 48 h) is on record as “complete loss of reporter activity”. Moreover, the “TEAD transcriptional activity” value in assay [2] (24 h) is “Less activity is observed at 24 h; also recorded: inhibits TEAD transcriptional activity in a concentration-dependent manner”. Moreover, the “inhibition of Cav2.2 α·β interaction” value in assay [3] is “no inhibition”. The “co-immunoprecipitation of Myc-tagged TEAD4 with Flag-Tagged Yap1” value at TEAD4.Yap1 interaction is recorded as “significant loss of co-immunoprecipitation”.

The values are drawn from patent US20210403415A1, “COMPOUNDS AND METHODS TO ATTENUATE TUMOR PROGRESSION AND METASTASIS” (THE TRUSTEES OF INDIANA UNIVERSITY, priority 2018, published 2021).
